Tests used:
Type in all cases: functional
Rattus norvegicus [1] = species on record: Rattus norvegicus; test: inhibition of sodium-dependent high-affinity choline uptake activity at 25 nM concentration for 7.5 min post wash pre-incubation time.
Rattus norvegicus [2] = species on record: Rattus norvegicus; test: In vitro inhibition of sodium-dependent high-affinity choline uptake activity (1 uM choline) at 5E-8 M concentration in the absence of thiosulfate
Rattus norvegicus [3] = species on record: Rattus norvegicus; test: Na-dependent high-affinity choline uptake at 25 nM concentration for 2.5 min post wash pre-incubation time.
Rattus norvegicus [4] = species on record: Rattus norvegicus; test: In vitro inhibition of sodium-dependent high-affinity choline uptake activity (1 uM choline) at 1E-7 M concentration in the presence of thiosulfate
Rattus norvegicus [5] = species on record: Rattus norvegicus; test: In vitro inhibition of sodium-dependent high-affinity choline uptake activity (1 uM choline) at 1E-8 M concentration in the absence of thiosulfate
Rattus norvegicus [6] = species on record: Rattus norvegicus; test: Na-dependent high-affinity choline uptake at 25 nM concentration for 7.5 min post wash pre-incubation time.
Rattus norvegicus [7] = species on record: Rattus norvegicus; test: In vitro inhibition of sodium-dependent high-affinity choline uptake activity (1 uM choline) at 1E-7 M concentration in the absence of thiosulfate
Rattus norvegicus [8] = species on record: Rattus norvegicus; test: Na-dependent high-affinity choline uptake at 25 nM concentration for 15 min post wash preincubation time.
Rattus norvegicus [9] = species on record: Rattus norvegicus; test: In vitro inhibition of sodium-dependent high-affinity choline uptake activity (1 uM choline) at 5E-8 M concentration in the presence of thiosulfate
Rattus norvegicus [10] = species on record: Rattus norvegicus; test: inhibition of sodium-dependent high-affinity choline uptake activity at 25 nM concentration for 2.5 min post wash pre-incubation time.
Rattus norvegicus [11] = species on record: Rattus norvegicus; test: inhibition of sodium-dependent high-affinity choline uptake activity at 25 nM concentration for 15 min post wash pre-incubation time.
Rattus norvegicus [12] = species on record: Rattus norvegicus; test: In vitro inhibition of sodium-dependent high-affinity choline uptake activity (1 uM choline) at 2E-5 M concentration in the absence of thiosulfate
Rattus norvegicus [13] = species on record: Rattus norvegicus; test: In vitro inhibition of sodium-dependent high-affinity choline uptake activity (1 uM choline) at 2E-5 M concentration in the presence of thiosulfate

`OC1(c2ccc(-c3ccc(C4(O)CN(CCBr)CCO4)cc3)cc2)CN(CCBr)CCO1` (configuration not stated) was tested, and the Inhibition (Rattus norvegicus [1]) was 32.9%, the Inhibition (Rattus norvegicus [2]) was 100% and the Choline uptake (Rattus norvegicus [3]) was 58.8 pM (4 min)-1 (mg of protein)-1. The Inhibition (Rattus norvegicus [4]) was 0%, the Inhibition (Rattus norvegicus [5]) was 84% and the Choline uptake (Rattus norvegicus [6]) was 59.8 pM (4 min)-1 (mg of protein)-1. For the same compound, the Inhibition (Rattus norvegicus [7]) was 100%, the Choline uptake (Rattus norvegicus [8]) was 54.9 pM (4 min)-1 (mg of protein)-1 and the Inhibition (Rattus norvegicus [9]) was 0%. For the same compound, the Inhibition (Rattus norvegicus [10]) was 31.2% and the Inhibition (Rattus norvegicus [11]) was 34%.
In the case of `C[N+]1(C)CCOC(O)(c2ccccc2)C1` (configuration not stated), the Inhibition (Rattus norvegicus [12]) is reported as 58%.
`OC1(c2ccccc2)CN(CCBr)CCO1` (configuration not stated) showed an Inhibition (Rattus norvegicus [12]) of 71% and an Inhibition (Rattus norvegicus [13]) of 9%.
Work on `C[N+]1(C)CCOC(O)(c2ccc(-c3ccc(C4(O)C[N+](C)(C)CCO4)cc3)cc2)C1` (configuration not stated) [HEMICHOLINIUM-3] yielded an Inhibition (Rattus norvegicus [2]) of 83%, an Inhibition (Rattus norvegicus [5]) of 35% and an Inhibition (Rattus norvegicus [9]) of 85%.
